Experimental data as given in patent US6451307B1, “3′-exonuclease, production and use thereof” (Aventis Research & Technologies GmbH & Co. KG, priority 1998, dated 2002).
Entries after “also recorded” stand apart in the source; their conditions may differ.

Experiments:
Assay type in all cases: biochemical, bovine
[1] = test system: poly(A)-specific 3′-exonuclease activity; assay: Conditions for the in-vitro deadenylation: ions and spermidine (1D TLC); settings: for decrease of activity as compared with the activity in the presence of Mg2+: 1 mM divalent ion, L3(A30) RNA; for decrease of activity as compared with the activity in the presence of Mg2+ / influence on deadenylation activity: Poly(A) Sepharose fraction; for influence on deadenylation activity: tail-labeled L3(A30) RNA
Procedure: (§1) The test conditions for the in-vitro deadenylation were as follows: 1 mM MgCl2, 2.5% (w/v) poly(vinyl alcohol) (Sigma P-8136, Mw 10,000), 100 mM KCl, 0.15 Unit RNAguard, from 5 to 20 fmol of RNA substrate, from 20 to 48% (v/v) buffer (20 mM HEPES (KOH), 0.2 mM EDTA, 0.5 mM DTT, 25% glycerol, pH 7) and the appropriate protein fraction (Åström, J. et al. (1992), see above). The reaction volume was 15 or 25 μl and the incubations were carried out at 30° C. The reactions were then terminated and RNA was purified as described in Moore, C. L. & Sharpe, P. A. (1985), see above. The RNA was analyzed by electrophoresis in 10% polyacrylamide (19:1 acrylamide/bisacrylamide)—7 M urea gels, followed by autoradiography of the resulting gels.
(§2) The deadenylation activity was quantified as follows: L3(A30) RNA substrate, labeled with [α^32P]ATP, was incubated in an in-vitro deadenylation reaction. The reaction products were analyzed by 1D TLC using mobile solvent III (0.75 M K2HPO4, pH 3.5 (H3PO4)). The resulting PEI-Cellulose F plate was dried and scanned in a 400 S Phosphorimager (Molecular Dynamics). The fractions containing released [α^32P]AMP were determined. The quantity, in mol, of released AMP was calculated on the basis of the known specific activity of [α^32P]AMP in the RNA substrate. One unit of deadenylation activity corresponds to the release of 1 pmol of AMP/minute.
The conditions for measuring poly(A) deadenylation activity in accordance with the above-described deadenylation test were determined using Poly(A) Sepharose fractions as the enzyme source and poly(A) tail-labeled L3(A30) RNA as the substrate. The activity was measured in terms of the release of the mononucleotides in the 1D TLC test (see above). The requirement of monovalent (potassium and sodium) and divalent (magnesium, manganese, zinc and calcium) ions for this was investigated.

[2] = test system: poly(A)-specific 3′-exonuclease activity; assay: Substrate specificity: Km and Vmax for homopolymer-tailed RNA substrates (Lineweaver-Burke plot); settings: Poly(A) Sepharose fraction; tail-labeled RNA substrates
Procedure: as §1, §2
The RNA substrate specificity of the activity was investigated in two experiments. In a first experiment, the RNA substrates L3(A30), ML45(U30), ML40(C32) and ML43(G30), whose homopolymeric tails had been radioactively labeled, were incubated in an in-vitro deadenylation test (see above). The release of radioactive mononucleotides was measured in the 1D TLC test (see above). The measurement results were used to calculate the Km and Vmax values for each RNA substrate using the Lineweaver-Burke plot (see Table II). In a second experiment, the substrate specificity was measured by incubating RNA substrates containing internal poly(A) segments, followed by plasmid-encoded RNA sequences of increasing length, with Poly(A) Sepharose fractions in an in-vitro deadenylation test. […] It follows from this that RNA tails composed of adenosine residues are the preferred substrate and that only 3′ end-located poly(A) tails are effectively degraded.

[3] = test system: poly(A)-specific 3′-exonuclease activity; assay: Kinetics of the nuclease activity (time course, added poly(A)); settings: 20 minutes, 0.5 μl Poly(A) Sepharose fraction, L3(A30) RNA
Procedure: FIGS. 5A-C show the ongoing degradation of poly(A). The Poly(A) Sepharose fraction was incubated, under in-vitro deadenylation conditions, with X fmol of the L3(A30) RNA substrate which had been labeled with [α-^32P]UTP during in-vitro transcription. The reaction products were fractionated in a 10% polyacrylamide:bisacrylamide 19:1-7 M urea gel. S and P indicate the migration sites of the RNA substrate (S) and the product (P). […] The indicated quantities of poly(A) in ng were added to the reactions.
as §1, with “The reaction volume was 15 or 25 μl and the incubations were carried out at 30° C. The reactions were then terminated and RNA was purified as described in Moore, C. L. & Sharpe, P. A. (1985), see above.” left out
In order to determine whether the nuclease activity degrades RNA substrates in a progressive or distributive manner, the kinetics was first of all determined in an in-vitro deadenylation reaction in the presence of 0.5 μl of a Poly(A) Sepharose fraction and x fmol of L3(A30) RNA substrate which had been labeled overall. […]

Row | Km [2] [µM] | Molecule | decrease of activity as compared with the activity in the presence of Mg2+ [1] [%] | influence on deadenylation activity [1] | also measured
1 | – | [Ca+2] [Ca^2+] | 0.7 | – | –
2 | – | [Mn+2] [Mn^2+] | 17 | also active in the presence of Mn^2+ | –
3 | – | [Zn+2] [Zn^2+] | 2 | – | –
4 | – | [Mg+2] [magnesium ions] | – | – | optimum concentration of ion for deadenylation activity [1]: 1 mM
5 | – | [K+] [potassium ions] | – | activity is higher in the presence of potassium ions than in the presence of sodium ions | –
6 | – | NCCCCNCCCN [spermidine] | – | no influence on the activity; also recorded: if anything, it is inhibited both at low and at high salt concentrations | –
7 | 0.01 | poly(A) | – | – | effect of added poly(A) on the deadenylation reaction [3]: inhibits the reaction
8 | 0.01 | poly(C) | – | – | –
9 | 0.007 | poly(G) | – | – | –
10 | 0.02 | poly(U) | – | – | –
